Reference: patent US11072638B2, “Immunostimulating peptides” (AIMVION A/S, priority 2016, dated 2021)
Bridge positions count the residues as written; N and C are the ends. Ends that are not written are not given here. I, II: the chains in the order shown.

Tests used:
THP-1 cells = assay: IL-6 levels in LPS-stimulated THP-1 cells, 6 h (Example 1); type: cell-based, human; conditions: for % IL-6 secretion level compared to LPS-stimulated control: THP-1, 1 μg/μl LPS for 6 h, + above, − below LPS-only control (100%); for Release of cytokines, including pro-inflammatory cytokines such as IL-6, TNF-alpha, and IL-8: pre-treatment of cells with peptide
Method: The modulatory function of peptides SG #4, SG #8, SG #13, and SG #14 on the expression levels of IL-6 in the human acute monocytic leukaemia cell line THP-1 was examined. THP-1 cells were maintained in RPMI 1640 supplemented with 10% FBS, 100 U/ml penicillin, 100 μg/ml streptomycin and 2 mM L-glutamine at 37° C. in a 5% CO2 incubator. THP-1 cells are known to induce IL-6, TNFα, IL-10 and IL-8 mRNA and protein in response to lipopolysaccharide (LPS) treatment. THP-1 cells were left untreated or incubated with 0 uM, 7.5 μM, 15 μM, 30 μM, 60 μM or 100 μm of each of the peptides, and stimulated with […] LPS for 6 h, based on previous analyses to find the optimal dose and incubation times.
(−) inhibition indicates percentage (%) of inhibition as compared to only LPS treated samples (arbitrarily set at 100%).

female BALB/c mice = assay: Anti-ovalbumin IgG1 ELISA after in vivo immunization of mice (Example 3); conditions: s.c. day 1 and day 14, 5 μg SG#4 + 50/25 μg ovalbumin per animal, serum at day 21
Source text: Chicken ovalbumin has been used to trigger T cell activation in immunology studies. Ovalbumin immunized mice produce anti-OVA antibodies predominantly of the IgG1 and IgE isotypes that mediate tissue-specific effector functions in multiple mouse models. Thus, it is often desirable to measure anti-OVA antibody levels in the plasma or serum to determine the effectiveness of the immunization/induction of a TH2-mediated immune response. Here, we tested the effectiveness of the SG #4 peptide in inducing of a TH2-mediated immune response in female BALB/c mice. The study agents contained Ovalbumin alone, peptide construct SG #4 alone or ovalbumin in combination with SG #4. […]
An ELISA assay was carried out according to the manufacturer's protocol, as follows. […] This Goat Anti-mouse IgG1 was labeled with HRP, allowing quantification of the […]. Addition of the HRP Substrate 3,3′,5,5′-tetramethylbenzidine (TMB), following by Stop Solution produces a yellow colored product which was measured spectrophotometrically. […] 1 mL of the top standard concentration (250 pg/mL anti-ovalbumin IgG1 quantification) was prepared in 1× Assay Diluent A (1×AD) from the anti-ovalbumin IgG1 stock solution. […] Using computer reduction software, absorbance (linear y-axis) for standard versus concentration (linear x-axis) is plotted and data is fitted with a quadratic equation. […]

Sequence | % IL-6 secretion level compared to LPS-stimulated control (THP-1 cells; 7.5 μM peptide) | % IL-6 secretion level compared to LPS-stimulated control (THP-1 cells; 15 μM peptide) | % IL-6 secretion level compared to LPS-stimulated control (THP-1 cells; 30 μM peptide) | % IL-6 secretion level compared to LPS-stimulated control (THP-1 cells; 60 μM peptide) | % IL-6 secretion level compared to LPS-stimulated control (THP-1 cells; 100 μM peptide) | Release of cytokines, including pro-inflammatory cytokines such as IL-6, TNF-alpha, and IL-8 (THP-1 cells) | Induction of immune response (anti-ovalbumin IgG1) versus ovalbumin alone (female BALB/c mice)
LQNKRGLGLSILLNEECGPGPGP (disulfide I:17-II:17 (inferred)) [SG#8] | +1.472% | +14.54% | +6.835% | +7.655% | +20.86% | promotes the release of cytokines | 
LQNRRGLGLSILLNC (disulfide I:15-II:15 (inferred)) [SG#4] | +12.99% | +20.76% | +38.19% | +36.39% | +13.27% | promotes the release of cytokines | significantly higher induction of immune response
LQNRRGLGLSILLNEE (Mutated sequence) [SG#13] | −5.765% | +6.907% | −5.286% | +8.616% | +36.98% | promotes the release of cytokines | 
LQNRRGLGLSILLNEELQNRRGL (Mutated sequence) [SG#14] | −2.981% | −0.4476% | +0.7403% | +28.52% | +15.21% | promotes the release of cytokines | 
